Key:
Neprilysin = target: T1, Neprilysin (Rattus norvegicus, UniProt P07861); experiment: Compound was tested for its inhibitory activity against neutral endopeptidase 24.11 enzyme at the concentration of 10 uM; Inactive
T1 sequence (P07861 whole entry): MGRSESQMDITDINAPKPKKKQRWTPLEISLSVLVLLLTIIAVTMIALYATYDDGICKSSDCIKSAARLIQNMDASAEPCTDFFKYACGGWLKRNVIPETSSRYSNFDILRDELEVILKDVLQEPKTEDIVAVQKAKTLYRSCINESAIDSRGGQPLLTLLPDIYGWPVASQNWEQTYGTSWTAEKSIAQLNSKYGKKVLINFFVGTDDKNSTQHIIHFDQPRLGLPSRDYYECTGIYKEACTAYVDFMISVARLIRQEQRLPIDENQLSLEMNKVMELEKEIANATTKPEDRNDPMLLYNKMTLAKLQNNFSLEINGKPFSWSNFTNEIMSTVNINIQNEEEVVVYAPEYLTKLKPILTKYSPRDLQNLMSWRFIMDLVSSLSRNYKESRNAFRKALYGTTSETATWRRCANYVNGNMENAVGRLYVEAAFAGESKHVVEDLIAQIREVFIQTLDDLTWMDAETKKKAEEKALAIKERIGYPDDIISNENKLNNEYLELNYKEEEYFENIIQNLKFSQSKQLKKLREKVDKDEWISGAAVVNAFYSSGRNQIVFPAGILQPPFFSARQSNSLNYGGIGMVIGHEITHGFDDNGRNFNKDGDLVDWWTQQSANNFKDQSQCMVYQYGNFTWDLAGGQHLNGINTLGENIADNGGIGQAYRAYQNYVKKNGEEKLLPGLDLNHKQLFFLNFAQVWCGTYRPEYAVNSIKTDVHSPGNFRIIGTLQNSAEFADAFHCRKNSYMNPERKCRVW

[1] = target: T2, Endothelin-converting enzyme 1 (Homo sapiens, UniProt P42892); experiment: Compound was tested for its inhibitory activity against Endothelin-converting enzyme at the concentration of 1 uM; Inactive
T2 sequence (P42892 whole entry): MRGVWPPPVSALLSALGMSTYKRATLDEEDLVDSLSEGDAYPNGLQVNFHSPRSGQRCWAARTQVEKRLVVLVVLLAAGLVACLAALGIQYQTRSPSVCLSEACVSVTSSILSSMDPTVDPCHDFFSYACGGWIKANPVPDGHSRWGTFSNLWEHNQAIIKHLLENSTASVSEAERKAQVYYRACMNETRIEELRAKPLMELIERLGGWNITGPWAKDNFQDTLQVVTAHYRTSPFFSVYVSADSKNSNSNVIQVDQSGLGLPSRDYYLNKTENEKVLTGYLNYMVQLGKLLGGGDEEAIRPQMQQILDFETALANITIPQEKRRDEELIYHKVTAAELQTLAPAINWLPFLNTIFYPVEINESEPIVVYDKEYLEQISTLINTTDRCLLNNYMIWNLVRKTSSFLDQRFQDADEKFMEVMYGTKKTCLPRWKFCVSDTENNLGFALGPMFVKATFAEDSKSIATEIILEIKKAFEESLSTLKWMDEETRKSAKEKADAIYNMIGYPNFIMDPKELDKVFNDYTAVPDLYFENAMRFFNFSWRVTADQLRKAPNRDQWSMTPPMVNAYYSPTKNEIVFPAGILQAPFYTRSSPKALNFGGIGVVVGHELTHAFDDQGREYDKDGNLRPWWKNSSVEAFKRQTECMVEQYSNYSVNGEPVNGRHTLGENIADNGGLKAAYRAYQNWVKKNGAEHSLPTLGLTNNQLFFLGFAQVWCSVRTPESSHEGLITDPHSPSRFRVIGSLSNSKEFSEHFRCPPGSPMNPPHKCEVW

[2] = target: T3, Angiotensin-converting enzyme (Oryctolagus cuniculus, UniProt P12822); experiment: Compound was tested for its inhibitory activity against Angiotensin I converting enzyme
T3 sequence (P12822 whole entry): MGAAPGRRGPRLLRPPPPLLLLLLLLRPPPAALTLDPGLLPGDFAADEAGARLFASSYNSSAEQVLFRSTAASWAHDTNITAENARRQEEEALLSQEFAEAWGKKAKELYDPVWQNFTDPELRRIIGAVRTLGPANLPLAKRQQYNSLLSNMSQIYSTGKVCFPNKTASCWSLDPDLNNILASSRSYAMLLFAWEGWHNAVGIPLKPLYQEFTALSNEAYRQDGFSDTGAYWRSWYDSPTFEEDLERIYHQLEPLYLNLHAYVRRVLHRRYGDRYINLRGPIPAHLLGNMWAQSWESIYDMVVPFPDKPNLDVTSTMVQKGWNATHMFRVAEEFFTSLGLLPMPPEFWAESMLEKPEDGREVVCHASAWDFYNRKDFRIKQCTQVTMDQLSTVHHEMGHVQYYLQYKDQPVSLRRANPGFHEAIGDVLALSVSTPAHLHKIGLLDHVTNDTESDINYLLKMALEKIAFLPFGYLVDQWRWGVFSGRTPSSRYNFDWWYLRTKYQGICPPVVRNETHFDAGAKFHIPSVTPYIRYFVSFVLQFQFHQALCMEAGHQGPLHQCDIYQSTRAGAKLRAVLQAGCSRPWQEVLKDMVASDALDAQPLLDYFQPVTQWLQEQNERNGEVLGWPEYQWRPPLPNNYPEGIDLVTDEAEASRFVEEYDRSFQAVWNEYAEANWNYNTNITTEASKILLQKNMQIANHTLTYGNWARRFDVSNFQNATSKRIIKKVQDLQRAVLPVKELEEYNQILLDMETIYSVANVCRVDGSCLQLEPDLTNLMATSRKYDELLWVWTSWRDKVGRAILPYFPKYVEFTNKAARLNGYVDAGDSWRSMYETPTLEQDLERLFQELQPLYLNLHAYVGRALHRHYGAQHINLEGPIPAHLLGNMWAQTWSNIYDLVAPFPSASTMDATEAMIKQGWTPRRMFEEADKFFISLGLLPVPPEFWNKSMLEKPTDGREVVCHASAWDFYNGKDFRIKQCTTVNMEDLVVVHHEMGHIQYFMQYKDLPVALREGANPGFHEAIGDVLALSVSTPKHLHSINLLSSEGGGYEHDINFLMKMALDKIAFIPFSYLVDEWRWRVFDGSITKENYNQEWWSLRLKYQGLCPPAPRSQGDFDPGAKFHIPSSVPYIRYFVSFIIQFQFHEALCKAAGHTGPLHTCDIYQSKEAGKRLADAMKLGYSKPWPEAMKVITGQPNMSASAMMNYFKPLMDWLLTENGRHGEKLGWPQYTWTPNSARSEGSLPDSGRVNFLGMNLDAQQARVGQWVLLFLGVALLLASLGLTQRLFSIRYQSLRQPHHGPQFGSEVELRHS

| Compound | IC50 (Neprilysin) | IC50 [1] | IC50 [2] |
| --- | --- | --- | --- |
| C[C@H](CS)C(=O)N1[C@@H]2C[C@@H]2CC[C@H]1C(=O)O | Not Active | Not Active | 5.3 nM |
| C[C@H](CS)C(=O)N1[C@@H]2C[C@@H]2C[C@H]1C(=O)O | Not Active | Not Active | 7.6 nM |
| C[C@H](CS)C(=O)N1[C@H](C(=O)O)C[C@@H]2C[C@@H]21 | Not Active | Not Active | 6.6 nM |

— ChEMBL document CHEMBL1130919, “Probing the importance of spacial and conformational domains in captopril analogs for angiotensin converting enzyme activity” (Bioorg Med Chem Lett, 1998)
